Activity calls are given as the source filed them. No cut-off for these calls is given here.
Experiments:
[1] = target: T1, Phospholipid hydroperoxide glutathione peroxidase GPX4 (Homo sapiens, UniProt P36969); assay: Binding affinity to human GPX4 assessed as dissociation constant by MST assay
T1 sequence (P36969 whole entry): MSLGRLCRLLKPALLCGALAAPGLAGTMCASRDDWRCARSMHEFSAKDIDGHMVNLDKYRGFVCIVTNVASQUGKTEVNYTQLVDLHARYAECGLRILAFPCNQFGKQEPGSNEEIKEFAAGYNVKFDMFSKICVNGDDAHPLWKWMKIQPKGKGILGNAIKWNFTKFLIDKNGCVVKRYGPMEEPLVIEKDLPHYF

HT-1080 [2] = assay: Induction of ferroptosis in human HT-1080 cells assessed as increase in cellular ROS level at 0.5 uM incubated for 3 hrs by DCFH-DA staining based flow cytometry analysis; assay type: functional, cell-based
HT-1080 [3] = assay: Induction of ferroptosis in human HT-1080 cells assessed as increase in cellular LPO level at 0.5 uM incubated for 3 hrs by BIODPY-C11 probe based flow cytometry analysis; assay type: functional, cell-based
HT-1080 [4] = assay: Cytotoxicity against human HT-1080 cells assessed as cell viability incubated for 24 hrs by CCK-8 assay; conditions: HT-1080, 24 h
HT-1080 [5] = assay: Induction of ferroptosis in human HT-1080 cells assessed as reduction in cell viability incubated for 24 hrs in presence of Fer-1 by CCK-8 assay; conditions: HT-1080, 24 h
[6] = Selectivity index, ratio of IC50 for cytotoxicity against human HT-1080 cells assessed as cell viability incubated for 24 hrs by CCK-8 assay to IC50 for induction of ferroptosis in human HT-1080 cells assessed as reduction in cell viability incubated for 24 hrs […] by CCK-8 assay; assay type: functional
HT-1080 [7] = assay: Induction of morphological changes in human HT-1080 cells assessed as appearance of round shaped mitochondria by TEM analysis; assay type: functional, cell-based
HT-1080 [8] = assay: Induction of morphological changes in human HT-1080 cells assessed as […] of mitochondria cristas by TEM analysis; assay type: functional, cell-based
HT-1080 [9] = assay: Induction of ferroptosis in human HT-1080 cells assessed as increase in cellular ROS level at 0.1 uM incubated for 3 hrs by DCFH-DA staining based flow cytometry analysis; assay type: functional, cell-based
HT-1080 [10] = assay: Induction of ferroptosis in human HT-1080 cells assessed as increase in cellular LPO level at 0.1 uM incubated for 3 hrs by BIODPY-C11 probe based flow cytometry analysis; assay type: functional, cell-based
HT-1080 [11] = assay: Induction of ferroptosis in human HT-1080 cells assessed as increase in cellular MDA level at 0.1 uM incubated for 6 hrs; assay type: functional, cell-based

SMILES | IC50 (HT-1080 [4]) | IC50 (HT-1080 [5]) | Ratio IC50 [6] | further results
COC(=O)c1ccc([C@H]2c3[nH]c4ccccc4c3C[C@H](C(=O)OC)N2C(=O)CCl)cc1 |  |  |  | Kd [1]: 43.7 nM; Activity (HT-1080 [2]): Active; Activity (HT-1080 [3]): Active
C#Cc1nc(C(=O)N(c2ccc(-c3cnco3)cc2)C(C(=O)NC(C)(C)C)c2c[nH]c3ccccc23)cs1 (stereo not given) | 98 nM | 8420 nM | 86 | 
O=C(NCCc1ccccc1)C(c1csc2ccccc12)N(C(=O)c1ccc([N+](=O)[O-])s1)c1ccc(-c2cnco2)cc1 (stereo not given) | > 5000 nM |  |  | 
C#Cc1nc(C(=O)N(c2ccc(-c3cnco3)cc2)C(C(=O)NC(C)(C)C)c2c[nH]cn2)cs1 (stereo not given) | 459 nM | 6140 nM | 13 | 
C#Cc1nc(C(=O)N(c2ccc(-c3cnco3)cc2)C(C(=O)NC(C)(C)C)c2ccncn2)cs1 (stereo not given) | 354 nM | 8160 nM | 23 | 
C#Cc1nc(C(=O)N(c2ccc(C(F)(F)F)cc2)C(C(=O)NC(C)(C)C)c2csc3ccccc23)cs1 (stereo not given) | 27 nM | 8410 nM | 311 | 
C#Cc1nc(C(=O)N(c2ccc(-c3cnco3)cc2)C(C(=O)NC(C)(C)C)C2CCCCC2)cs1 (stereo not given) | 354 nM | 8160 nM | 23 | 
C#Cc1nc(C(=O)N(c2ccc(-c3cnco3)cc2)C(C(=O)NC(C)(C)C)c2cccc3ccccc23)cs1 (stereo not given) | 22 nM | 8650 nM | 393 | 
C#Cc1nc(C(=O)N(c2ccc(-c3cnco3)cc2)C(C(=O)NCCc2ccccc2)c2csc3ccccc23)cs1 (stereo not given) | 21 nM | 9030 nM | 430 | 
C#Cc1nc(C(=O)N(c2ccc(-c3cnco3)cc2)C(C(=O)NC(C)(C)C)c2cccs2)cs1 (stereo not given) | 341 nM | 6790 nM | 19.9 | 
C#Cc1nc(C(=O)N(c2ccc(-n3cccn3)cc2)C(C(=O)NC(C)(C)C)c2csc3ccccc23)cs1 (stereo not given) | 239 nM | 6830 nM | 29 | 
C#Cc1nc(C(=O)N(c2ccc(-c3cnco3)cc2)C(C(=O)NC(C)(C)C)C2=CCCOC2)cs1 (stereo not given) | 415 nM | 6200 nM | 15 | 
Cc1onc(C(=O)N(c2ccc(-c3cnco3)cc2)C(C(=O)NCCc2ccccc2)c2csc3ccccc23)c1[N+](=O)[O-] (stereo not given) | > 5000 nM |  |  | 
C#Cc1nc(C(=O)N(c2ccc(-c3cnco3)cc2)C(C(=O)NC(C)(C)C)c2ccc[nH]2)cs1 (stereo not given) | 120 nM | 7410 nM | 61.7 | 
C#CC(=O)N(c1ccc(-c2cnco2)cc1)C(C(=O)NCCc1ccccc1)c1csc2ccccc12 (stereo not given) | 425 nM | 4750 nM | 11 | 
C#Cc1nc(C(=O)N(c2ccc(-c3cnco3)cc2)C(C(=O)NCc2ccccc2)c2csc3ccccc23)cs1 (stereo not given) | 32 nM | 6120 nM | 191 | 
O=C(NCCc1ccccc1)C(c1csc2ccccc12)N(C(=O)CCl)c1ccc(-c2cnco2)cc1 (stereo not given) | 121 nM | 4600 nM | 38 | Kd [1]: 24.7 nM; Activity (HT-1080 [7]): Active; Activity (HT-1080 [8]): Active; Activity (HT-1080 [9]): Active; Activity (HT-1080 [10]): Active; Activity (HT-1080 [11]): Active
O=C(NCCc1ccccc1)C(c1csc2ccccc12)N(C(=O)c1ccc([N+](=O)[O-])o1)c1ccc(-c2cnco2)cc1 (stereo not given) | > 5000 nM |  |  | 
O=C(NCCc1ccccc1)C(c1csc2ccccc12)N(C(=O)c1cc([N+](=O)[O-])[nH]n1)c1ccc(-c2cnco2)cc1 (stereo not given) | > 5000 nM |  |  | 
C#Cc1nc(C(=O)N(c2ccc(-c3cnco3)cc2)C(C(=O)NC(C)(C)C)c2cc[nH]n2)cs1 (stereo not given) | 375 nM | 7160 nM | 19 | 
C#Cc1nc(C(=O)N(c2ccc(-c3cnco3)cc2)C(C(=O)NC(C)(C)C)c2csc3ccccc23)cs1 (stereo not given) | 70 nM | 3050 nM |  | 
C#Cc1nc(C(=O)N(c2ccc(-n3cncn3)cc2)C(C(=O)NC(C)(C)C)c2csc3ccccc23)cs1 (stereo not given) | 356 nM | 4230 nM | 12 | 
C#Cc1nc(C(=O)N(c2ccc(-c3cnco3)cc2)C(C(=O)NC(C)(C)C)c2cncs2)cs1 (stereo not given) | 500 nM | 9430 nM | 17 | 
C#Cc1nc(C(=O)N(c2ccc(-c3cnco3)cc2)C(C(=O)NC2CCCCC2)c2csc3ccccc23)cs1 (stereo not given) | 17 nM | 3870 nM | 228 | 
C#Cc1nc(C(=O)N(c2ccc(-c3cnco3)cc2)[C@H](C(=O)NC(C)(C)C)c2csc3ccccc23)cs1 | 12 nM | 11700 nM |  | 
C#Cc1nc(C(=O)N(c2ccc(-n3ccnc3)cc2)C(C(=O)NC(C)(C)C)c2csc3ccccc23)cs1 (stereo not given) | 345 nM | 4760 nM | 14 | 
C=CC(=O)N(c1ccc(-c2cnco2)cc1)C(C(=O)NCCc1ccccc1)c1csc2ccccc12 (stereo not given) | 64 nM | 3750 nM | 58 | 
C#Cc1nc(C(=O)N(c2ccc(-c3cnco3)cc2)C(C(=O)NC(C)(C)C)c2ccsc2)cs1 (stereo not given) | 207 nM | 6340 nM | 30.6 | 
